# Results as given in ChEMBL document CHEMBL1127174, “Inhibition of cartilage breakdown by isothiazolones” (Bioorg Med Chem Lett, 1993).
# Species on record: Bos taurus
# Assay: In vitro ability to inhibit cartilage breakdown by using 1L-1beta stimulated bovine nasal cartilage assay
# Type: functional
row,IC50 [µM],Structure (SMILES)
1,3.7,O=c1c2cccnc2sn1-c1ccc(Cl)cc1
2,> 30,COc1ccc2cc([C@H](C)C(=O)O)ccc2c1 [NAPROXEN]
3,13.5,COc1ccc(-n2sc3ncccc3c2=O)cc1
4,> 30,COc1ccc2c(c1)c(CC(=O)O)c(C)n2C(=O)c1ccc(Cl)cc1 [INDOMETHACIN]
5,> 30,Nc1ccccc1C(=O)Nc1ccccc1
6,3,"CNC(=O)C(Cc1ccc(OC)cc1)NC(=O)[C@H](CC(C)C)[C@H](C)C(=O)NO (single isomer, unassigned)"
7,> 30,O=C(Nc1ccccc1)c1ccccc1O [SALICYLANILIDE]
8,> 30,COc1ccc(-n2sc3ccccc3c2=O)cc1
9,> 30,CN(C)[C@@H]1C(O)=C(C(N)=O)C(=O)[C@@]2(O)C(O)=C3C(=O)c4c(O)cccc4[C@@](C)(O)[C@H]3C[C@@H]12 [TETRACYCLINE]
10,3,O=c1c2ccccc2sn1-c1ccccc1

row,Structure (SMILES),IC50 [µM]
1,O=c1ccsn1-c1ccccc1,> 30
2,O=c1c2ccccc2[se]n1-c1ccccc1 [EBSELEN],13
3,O=c1c2ccccc2sn1-c1ccc(Cl)cc1,3.6
